Data reported in patent publication US9944967B2, “Methods for the site-selective introduction of halogen into natural products” (THE REGENTS OF THE UNIVERSITY OF CALIFORNIA, priority 2013, dated 2018).

How the values were obtained:
DEBSMod6+TE [1] = target: T1, DEBSMod6+TE (Saccharopolyspora erythraea, UniProt Q03133); assay: Acyl-CoA hydrolysis by DEBSMod6+TE (DTNB assay); type: biochemical
T1 construct: the sixth module of DEBS, including the terminal thioesterase (DEBSMod6+TE); His6 (C); made in house; host or cells: E. coli BAP1
Protocol: Hydrolytic activity of DEBSMod6+TE was measured by monitoring the reaction of free CoA with DTNB as described previously (Huang, F., et al., Chem. Biol., 13:475-484 (2006)). Assays were performed at 37° C. in a total volume of 200 μL containing 400 mM sodium phosphate, pH 7.5, 500 μM DTNB, and DEBSMod6+TE (1 μM). Reactions were initiated by addition of acyl-CoA (0.5 mM) and monitored at 412 nm in a Beckman Coulter DU-800 spectrophotometer. Release of CoA was quantified by comparison to a standard curve (5-100 μM).

[2] = Stability of fluoromalonyl-CoA solutions; type: physicochemical; conditions: room temperature; in water or D2O
Protocol: Fluoromalonyl-CoA was prepared enzymatically from fluoromalonate and CoA using MatB and ATP. A myokinase/pyruvate kinase/PEP system was also used to regenerate ATP in order to avoid high concentrations of AMP that might inhibit MatB. The reaction mixture (10 mL) contained 100 mM sodium phosphate, pH 7.5, phosphoenolpyruvate (5 mM), TCEP (2.5 mM), magnesium chloride (5 mM), fluoromalonate (2.5 mM), ATP (2.5 mM), pyruvate kinase (36 U), myokinase (20 U), CoA (2 mM) and MatB (5 μM). The mixture was incubated at 37° C. for 6 h and then at room temperature for 16 h before lyophilizing overnight. The residue was dissolved in water (1.6 mL) and acidified to pH ˜2 by addition of 70% perchloric acid (160 μL). Insoluble material was removed by centrifugation at 18,000×g for 10 min. […] HR-ESI-MS [M−H]^−: calculated for C24H36FN2O19P3S, m/z, 870.0989. found m/z 870.0991.

DEBSMod6+TE [3] = assay: Covalent inhibition assay for DEBSMod6+TE; type: biochemical; conditions: 18 h incubation in F-TKL reaction, then tested for TKL production; preliminary
Protocol: Two triketide reaction mixtures (200 μL) were prepared as described above, one containing fluoromalonate (10 mM) and the other methylmalonate (10 mM). DEBSMod6+TE (10 μM) and NDK-SNAC (2.5 mM) were added to each and the reactions were incubated at 37° C. for 18 h. The protein fraction was isolated from each mixture at room temperature by desalting on a Sephadex G-25 column (3 mL) using 400 mM sodium phosphate, pH 7.5. Fractions were pooled by Bradford assay and concentrated to 200 μL using Amicon Ultra spin concentrators (3 kDa MWCO). The isolated DEBSMod6+TE was assayed by adding TCEP (2.5 mM), methylmalonyl-CoA (1 mM) and NDK-SNAC (1 mM) to this mixture to give a final volume of 210 μL and incubating at 37° C. for 3 h, then analyzed by HPLC as described above.

[4] = system: malonyl-CoA synthetase (MatB); assay: Malonyl-CoA synthetase (MatB) coupled assay; type: biochemical, S. coelicolor
Protocol: MatB activity was measured using a modified literature method (Williamson, J. R., et al., Method. Enzymol., 434-513 (1969)). The production of AMP was coupled to pyruvate formation by myokinase and pyruvate kinase, which in turn was coupled to NADH oxidation by lactate dehydrogenase. Assays were performed at 30° C. in a total volume of 200 μL containing 100 mM HEPES, pH 7.5, TCEP (1 mM), ATP (2.5 mM), magnesium chloride (5 mM), phosphoenolpyruvate (1 mM), NADH (0.3 mM), myokinase (0.5 U), pyruvate kinase (3.6 U), lactate dehydrogenase (2.6 U), dicarboxylic acid (25 μM-1 mM malonate, 50 μM-10 mM fluoromalonate or 25 μM-1.5 mM methylmalonate) and MatB (26 nM for malonate, 1 μM for fluoromalonate and 200 nM for methylmalonate). The reaction was initiated with addition of CoA (0.5 mM) and monitored at 340 nm in a Beckman Coulter DU-800 spectrophotometer.

T1 sequence (Q03133 1492-3172): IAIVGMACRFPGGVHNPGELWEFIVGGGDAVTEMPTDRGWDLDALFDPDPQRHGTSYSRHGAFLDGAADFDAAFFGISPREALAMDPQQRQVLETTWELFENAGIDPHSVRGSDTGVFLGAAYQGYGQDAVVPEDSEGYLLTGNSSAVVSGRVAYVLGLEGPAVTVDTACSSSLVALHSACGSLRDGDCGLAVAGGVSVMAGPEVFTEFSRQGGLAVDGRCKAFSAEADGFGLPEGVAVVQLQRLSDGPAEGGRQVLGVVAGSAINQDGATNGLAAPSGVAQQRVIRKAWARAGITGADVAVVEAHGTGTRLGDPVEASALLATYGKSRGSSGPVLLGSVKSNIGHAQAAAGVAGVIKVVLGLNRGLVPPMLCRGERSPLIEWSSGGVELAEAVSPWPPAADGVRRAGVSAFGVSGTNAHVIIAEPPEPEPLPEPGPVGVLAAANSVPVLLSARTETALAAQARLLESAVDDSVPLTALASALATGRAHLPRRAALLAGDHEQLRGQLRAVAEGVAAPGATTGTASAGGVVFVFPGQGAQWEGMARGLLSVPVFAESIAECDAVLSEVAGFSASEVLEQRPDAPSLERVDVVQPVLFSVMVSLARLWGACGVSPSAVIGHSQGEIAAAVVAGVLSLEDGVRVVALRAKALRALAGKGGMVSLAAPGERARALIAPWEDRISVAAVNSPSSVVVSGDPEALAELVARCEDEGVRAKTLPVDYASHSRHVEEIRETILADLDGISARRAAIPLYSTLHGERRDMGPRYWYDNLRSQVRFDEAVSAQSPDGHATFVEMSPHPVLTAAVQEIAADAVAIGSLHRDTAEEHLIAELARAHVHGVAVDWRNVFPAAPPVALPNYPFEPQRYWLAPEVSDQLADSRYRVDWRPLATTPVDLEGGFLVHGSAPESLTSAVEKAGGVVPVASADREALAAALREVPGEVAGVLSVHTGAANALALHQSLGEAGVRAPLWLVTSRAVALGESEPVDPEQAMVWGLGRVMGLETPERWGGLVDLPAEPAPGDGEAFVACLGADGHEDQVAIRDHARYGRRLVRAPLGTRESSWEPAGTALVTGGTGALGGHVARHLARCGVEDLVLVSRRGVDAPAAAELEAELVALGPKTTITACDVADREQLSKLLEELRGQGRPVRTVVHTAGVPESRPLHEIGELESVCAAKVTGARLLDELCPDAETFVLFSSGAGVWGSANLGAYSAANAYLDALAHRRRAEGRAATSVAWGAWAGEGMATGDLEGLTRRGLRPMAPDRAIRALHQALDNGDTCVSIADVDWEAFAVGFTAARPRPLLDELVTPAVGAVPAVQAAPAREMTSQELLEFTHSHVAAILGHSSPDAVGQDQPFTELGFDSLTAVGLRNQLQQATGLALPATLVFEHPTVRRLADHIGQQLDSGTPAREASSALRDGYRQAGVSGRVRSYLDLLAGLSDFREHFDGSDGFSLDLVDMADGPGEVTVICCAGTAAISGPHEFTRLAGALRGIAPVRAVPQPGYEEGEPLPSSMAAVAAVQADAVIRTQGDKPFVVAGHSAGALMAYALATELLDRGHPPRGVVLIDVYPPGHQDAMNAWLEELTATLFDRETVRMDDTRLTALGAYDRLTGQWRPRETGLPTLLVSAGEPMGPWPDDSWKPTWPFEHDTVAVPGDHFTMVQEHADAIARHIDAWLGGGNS

Row | Molecule | v0 (rate of acyl-CoA hydrolysis) (DEBSMod6+TE [1]; DEBSMod6 + TE (1 μM), acyl-CoA (500 μM), mean ± s.d. (n = 4)) [µM/min] | Relative rate of acyl-CoA hydrolysis (DEBSMod6+TE [1]; relative to methylmalonyl-CoA) | stability of solutions [2] | covalent inactivation of DEBSMod6+TE (DEBSMod6+TE [3]) | selectivity of MatB for malonate over fluoromalonate [4] [fold]
1 | CC(C)(COP(=O)(O)OP(=O)(O)OC[C@H]1O[C@@H](n2cnc3c(N)ncnc32)[C@H](O)[C@@H]1OP(=O)(O)O)[C@@H](O)C(=O)NCCC(=O)NCCSC(=O)C(F)C(=O)O (some centres unmarked) [Fluoromalonyl-CoA] | 3.5 ± 0.3 | 2.6 | at least 24 h | not due to covalent inactivation of the enzyme | 
2 | Fluoromalonate |  |  |  |  | 103
